Patent US20040266623A1, “SYNERGISTIC QUINCLORAC HERBICIDAL COMPOSITIONS” (priority 2003, published 2004)

Legend:
Experiment in all cases: Greenhouse pot test, postemergent spray, visual control rating converted to percent control
Format in all cases: in vivo
crabgrass = details: for Control (1-9) Crabgrass: scale 1=no control, 9=death of plant
Protocol: (§1) Pots of crabgrass, dandelion, white clover, and plantain grown in greenhouse soiless growth media were sprayed with a greenhouse pot sprayer at 43.46 gallons of spray solution/acre and allowed to stand in the greenhouse. Visual observation of the effects made by the herbicidal compositions on the plants in the test pots was recorded for control of crabgrass, dandelion, clover and plantain at 24 hours after treatment (HAT), 48 hours after treatment (HAT), 72 hours after treatment (HAT), 7 days after treatment (DAT), 14 days after treatment (DAT) and 21 days after treatment (DAT). A control rating scale of 1 to 9 was used to record the visual observation of the effect of the herbicidal composition on the plants over the time period of the tests. 1=no control, and 9=death of plant, with intervening numbers representing successive degrees of observed effectiveness of the herbicidal composition over time. The 1-9 control rating scale was converted to percent control in the test data charts that follow.
(§2) The test protocol of S. R. Colby as set out in his article entitled “Calculating Synergistic and Antagonistic Responses of Herbicide Compositions,” received for publication Apr. 11, 1966, Contribution No. 3796 and Scientific Article No. 1271 of the Maryland Agricultural Experiment Station, Department pf Agronomy, University of Maryland was followed to evaluate the synergistic properties of the combination of quinclorac plus a herbicidal protox inhibitor, and a combination of quinclorac, plus a herbicidal protox inhibitor plus a herbicidal auxinic agent as compared with the individual herbicides, using Colby's formulas E=X+Y−XY/100 for a two herbicide combination, where E=the expected percent of inhibition of growth by herbicides, X=the percent inhibition of growth by herbicide A at p lb/A, and Y=the percent inhibition of growth by herbicide B at q lb/A, for a given combination of two herbicides. Colby's formula E=X+Y+Z−(XY+XZ+YZ)/100+XYZ/10,000, was used for the three-way herbicide combination evaluation, where E, X and Y are the same as in the two herbicide formula and Z=the percent inhibition of growth by the third herbicide.

dandelion = details: for Control (1-9) Dandelion: scale 1=no control, 9=death of plant
Protocol: as §1, §2

white clover = details: for Control (1-9) Clover: scale 1=no control, 9=death of plant
Protocol: as §1, §2

plantain = details: for Control (1-9) Plantain: scale 1=no control, 9=death of plant
Protocol: as §1, §2

Cc1nn(-c2cc(CC(Cl)C(=O)O)c(Cl)cc2F)c(=O)n1C(F)F (stereo not shown) [Carfentrazone @ 0.01 lbs/A]
% Control Crabgrass (crabgrass; Test 4, 24 HAT): 11.1%
Control (1-9) Crabgrass (crabgrass; Test 4, 24 HAT): 1
% Control Crabgrass (crabgrass; Test 4, 72 HAT): 22.2%
Control (1-9) Crabgrass (crabgrass; Test 4, 72 HAT): 2
% Control Dandelion (dandelion; Test 4, 24 HAT): 22.2%
Control (1-9) Dandelion (dandelion; Test 4, 24 HAT): 2
% Control Dandelion (dandelion; Test 4, 72 HAT): 33.3%
Control (1-9) Dandelion (dandelion; Test 4, 72 HAT): 3
% Control Clover (white clover; Test 4, 24 HAT): 22.2%
Control (1-9) Clover (white clover; Test 4, 24 HAT): 2
% Control Clover (white clover; Test 4, 72 HAT): 44.4%
Control (1-9) Clover (white clover; Test 4, 72 HAT): 4
% Control Plantain (plantain; Test 4, 24 HAT): 33.3%
Control (1-9) Plantain (plantain; Test 4, 24 HAT): 3
% Control Plantain (plantain; Test 4, 72 HAT): 88.9%
Control (1-9) Plantain (plantain; Test 4, 72 HAT): 8

O=C(O)c1c(Cl)ccc2cc(Cl)cnc12 [Quinclorac @ 0.75 lbs/A]
% Control Crabgrass (crabgrass; Test 3, 7 DAT): 22.2%
Control (1-9) Crabgrass (crabgrass; Test 3, 7 DAT): 2
% Control Crabgrass (crabgrass; Test 3, 14 DAT): 66.7%
Control (1-9) Crabgrass (crabgrass; Test 3, 14 DAT): 6
% Control Crabgrass (crabgrass; Test 3, 21 DAT): 77.8%
Control (1-9) Crabgrass (crabgrass; Test 3, 21 DAT): 7
% Control Crabgrass (crabgrass; Test 3, 24 HAT): 11.1%
Control (1-9) Crabgrass (crabgrass; Test 3, 24 HAT): 1
% Control Crabgrass (crabgrass; Test 3, 72 HAT): 22.2%
Control (1-9) Crabgrass (crabgrass; Test 3, 72 HAT): 2
% Control Crabgrass (crabgrass; Test 4, 24 HAT): 11.1%
Control (1-9) Crabgrass (crabgrass; Test 4, 24 HAT): 1
% Control Crabgrass (crabgrass; Test 4, 72 HAT): 22.2%
Control (1-9) Crabgrass (crabgrass; Test 4, 72 HAT): 2
% Control Dandelion (dandelion; Test 3, 7 DAT): 22.2%
Control (1-9) Dandelion (dandelion; Test 3, 7 DAT): 2
% Control Dandelion (dandelion; Test 3, 14 DAT): 44.4%
Control (1-9) Dandelion (dandelion; Test 3, 14 DAT): 4
% Control Dandelion (dandelion; Test 3, 21 DAT): 33.3%
Control (1-9) Dandelion (dandelion; Test 3, 21 DAT): 3
% Control Dandelion (dandelion; Test 3, 24 HAT): 11.1%
Control (1-9) Dandelion (dandelion; Test 3, 24 HAT): 1
% Control Dandelion (dandelion; Test 3, 72 HAT): 22.2%
Control (1-9) Dandelion (dandelion; Test 3, 72 HAT): 2
% Control Dandelion (dandelion; Test 4, 24 HAT): 11.1%
Control (1-9) Dandelion (dandelion; Test 4, 24 HAT): 1
% Control Dandelion (dandelion; Test 4, 72 HAT): 22.2%
Control (1-9) Dandelion (dandelion; Test 4, 72 HAT): 2
% Control Clover (white clover; Test 3, 7 DAT): 44.4%
Control (1-9) Clover (white clover; Test 3, 7 DAT): 4
% Control Clover (white clover; Test 3, 14 DAT): 55.6%
Control (1-9) Clover (white clover; Test 3, 14 DAT): 5
% Control Clover (white clover; Test 3, 21 DAT): 88.9%
Control (1-9) Clover (white clover; Test 3, 21 DAT): 8
% Control Clover (white clover; Test 3, 24 HAT): 11.1%
Control (1-9) Clover (white clover; Test 3, 24 HAT): 1
% Control Clover (white clover; Test 3, 72 HAT): 22.2%
Control (1-9) Clover (white clover; Test 3, 72 HAT): 2
% Control Clover (white clover; Test 4, 24 HAT): 11.1%
Control (1-9) Clover (white clover; Test 4, 24 HAT): 1
% Control Clover (white clover; Test 4, 72 HAT): 22.2%
Control (1-9) Clover (white clover; Test 4, 72 HAT): 2
% Control Plantain (plantain; Test 3, 7 DAT): 33.3%
Control (1-9) Plantain (plantain; Test 3, 7 DAT): 3
% Control Plantain (plantain; Test 3, 14 DAT): 55.6%
Control (1-9) Plantain (plantain; Test 3, 14 DAT): 5
% Control Plantain (plantain; Test 3, 21 DAT): 55.6%
Control (1-9) Plantain (plantain; Test 3, 21 DAT): 5
% Control Plantain (plantain; Test 3, 24 HAT): 11.1%
Control (1-9) Plantain (plantain; Test 3, 24 HAT): 1
% Control Plantain (plantain; Test 3, 72 HAT): 22.2%
Control (1-9) Plantain (plantain; Test 3, 72 HAT): 2
% Control Plantain (plantain; Test 4, 24 HAT): 11.1%
Control (1-9) Plantain (plantain; Test 4, 24 HAT): 1
% Control Plantain (plantain; Test 4, 72 HAT): 33.3%
Control (1-9) Plantain (plantain; Test 4, 72 HAT): 3

Cc1nn(-c2cc(NS(C)(=O)=O)c(Cl)cc2Cl)c(=O)n1C(F)F [Sulfentrazone @ 0.03 lbs/A]
% Control Crabgrass (crabgrass; Test 3, 7 DAT): 55.6%
Control (1-9) Crabgrass (crabgrass; Test 3, 7 DAT): 5
% Control Crabgrass (crabgrass; Test 3, 14 DAT): 55.6%
Control (1-9) Crabgrass (crabgrass; Test 3, 14 DAT): 5
% Control Crabgrass (crabgrass; Test 3, 21 DAT): 44.4%
Control (1-9) Crabgrass (crabgrass; Test 3, 21 DAT): 4
% Control Crabgrass (crabgrass; Test 3, 24 HAT): 11.1%
Control (1-9) Crabgrass (crabgrass; Test 3, 24 HAT): 1
% Control Crabgrass (crabgrass; Test 3, 72 HAT): 44.4%
Control (1-9) Crabgrass (crabgrass; Test 3, 72 HAT): 4
% Control Dandelion (dandelion; Test 3, 7 DAT): 66.7%
Control (1-9) Dandelion (dandelion; Test 3, 7 DAT): 6
% Control Dandelion (dandelion; Test 3, 14 DAT): 77.8%
Control (1-9) Dandelion (dandelion; Test 3, 14 DAT): 7
% Control Dandelion (dandelion; Test 3, 21 DAT): 77.8%
Control (1-9) Dandelion (dandelion; Test 3, 21 DAT): 7
% Control Dandelion (dandelion; Test 3, 24 HAT): 33.3%
Control (1-9) Dandelion (dandelion; Test 3, 24 HAT): 3
% Control Dandelion (dandelion; Test 3, 72 HAT): 55.6%
Control (1-9) Dandelion (dandelion; Test 3, 72 HAT): 5
% Control Clover (white clover; Test 3, 7 DAT): 44.4%
Control (1-9) Clover (white clover; Test 3, 7 DAT): 4
% Control Clover (white clover; Test 3, 14 DAT): 55.6%
Control (1-9) Clover (white clover; Test 3, 14 DAT): 5
% Control Clover (white clover; Test 3, 21 DAT): 55.6%
Control (1-9) Clover (white clover; Test 3, 21 DAT): 5
% Control Clover (white clover; Test 3, 24 HAT): 22.2%
Control (1-9) Clover (white clover; Test 3, 24 HAT): 2
% Control Clover (white clover; Test 3, 72 HAT): 33.3%
Control (1-9) Clover (white clover; Test 3, 72 HAT): 3
% Control Plantain (plantain; Test 3, 7 DAT): 88.9%
Control (1-9) Plantain (plantain; Test 3, 7 DAT): 8
% Control Plantain (plantain; Test 3, 14 DAT): 88.9%
Control (1-9) Plantain (plantain; Test 3, 14 DAT): 8
% Control Plantain (plantain; Test 3, 21 DAT): 100.0%
Control (1-9) Plantain (plantain; Test 3, 21 DAT): 9
% Control Plantain (plantain; Test 3, 24 HAT): 44.4%
Control (1-9) Plantain (plantain; Test 3, 24 HAT): 4
% Control Plantain (plantain; Test 3, 72 HAT): 66.7%
Control (1-9) Plantain (plantain; Test 3, 72 HAT): 6
